Entries after “also recorded” stand apart in the source; their conditions may differ.
Assays:
human TRPA1 = molecular target: T1, human TRPA1 (Homo sapiens, UniProt O75762); assay: Evaluation of human TRPA1 activity in stably expressing cells (Fluo 4-AM calcium fluorescence); format: cell-based; conditions: human TRPA1 stably expressing Flp-In 293 cells; fluorescence 485/525 nm, 27° C.
T1 construct: doxycycline-inducible Flp-In T-REx 293 cells; Fluo-4 calcium assay
Excerpt: The full-length human TRPA1 gene (GenBank Accession Number: NM_007332) was amplified from plasmid pFN21AB7348 (manufactured by Kazusa DNA Research Institute), and the full-length human TRPV1 gene (GenBank Accession Number: NM_018727) was amplified from pFN21AE2418 (manufactured by Kazusa DNA Research Institute) using PCR. The obtained PCR product was subcloned into pcDNA5/FRT/TO (manufactured by ThermoFisher Scientific), and then introduced into Flp-In 293 cells (manufactured by Thermo Fisher Scientific) using a Flp-In T-REX system (manufactured by Thermo Fisher Scientific) to prepare a human TRPA1 stably expressing cell line and a human TRPV1 stably expressing cell line […]
After replacing the culture medium with buffer solution, fluorescent calcium indicator Fluo 4-AM (manufactured by Dojindo Laboratories) was added and incubated at 37° C. for 1 hour. After replacing the culture solution with buffer solution again, the microplate was set to a fluorescence microplate reader FlexStation 3 (manufactured by Molecular Devices, LLC.). Diethyl sebacate was added at various concentrations at an internal temperature of 27° C., and the fluorescence intensity at a wavelength of 525 nm when excited at a wavelength of 485 nm was measured. […]

[1] = Sensory evaluation of carbonation sensation imparting in black tea beverage with fruit juice; format: in vivo; conditions: for Carbonation sensation imparting evaluation result: average score of seven panelists
Protocol: (§1) In the following Examples, the action and effect were verified using a value obtained by calculating an average score of scores for imparting or enhancing fizziness by sensory evaluation conducted by specialized panelists. The expression “1 point” in the evaluation is the evaluation in the case where no component is added at all (no addition).
Diethyl sebacate was separately added to “Afternoon Tea Apple Tea Plus (registered trademark) (manufactured by Kirin Beverage Co., Ltd.)” so as to reach the concentrations shown in Table 9 below, and sensory evaluation was performed by seven specialized panelists to determine the extent to which fizziness was imparted as compared with a control in which diethyl sebacate was not added.

[2] = Sensory evaluation of fizziness enhancement in beer-flavored beverage; format: in vivo; conditions: for Fizziness enhancement evaluation result: beer-flavored beverage, average score of seven panelists, 1 to 5
Protocol: as §1
Diethyl sebacate was separately added to “Asahi Dry Zero (registered trademark) (manufactured by Asahi Breweries, Ltd.)” so as to reach the concentrations shown in Table 8 below, and sensory evaluation was performed by seven specialized panelists to determine the extent to which fizziness was enhanced as compared with a control in which diethyl sebacate was not added.

[3] = Sensory evaluation of carbonation sensation imparting in cider-flavored frozen dessert; format: in vivo; conditions: for Carbonation sensation imparting evaluation result: average score of seven panelists, 1 to 5
Protocol: as §1
Diethyl sebacate was separately added to a cider-flavored frozen dessert prepared according to the formulation shown in Table 16 so as to reach a concentration shown in Table 17 below, and sensory evaluation was performed by seven panelists to determine the extent to which fizziness was imparted as compared with a control in which diethyl sebacate was not added.

[4] = Sensory evaluation of fizziness enhancement in cider-flavored carbonated beverage; format: in vivo; conditions: for Fizziness enhancement evaluation result: average score of seven panelists, 1 to 5
Protocol: as §1
Diethyl sebacate was separately added to “Mitsuya Cider (registered trademark) Zero Strong (manufactured by Asahi Soft Drinks Co., Ltd.)” so as to reach the concentrations shown in Table 6 below, and sensory evaluation was performed by seven specialized panelists to determine the extent to which fizziness was enhanced as compared with a control in which diethyl sebacate was not added.

[5] = Sensory evaluation of carbonation sensation imparting in grape-flavored mouthwash; format: in vivo; conditions: for Carbonation sensation imparting evaluation result: grape-flavored mouthwash, average score of five panelists, 1 to 5
Protocol: as §1
Diethyl sebacate was separately added to grape-flavored mouthwash prepared according to the formulation shown in Table 18 so as to reach a concentration shown in Table 19 below, and sensory evaluation was performed by five panelists to determine the extent to which fizziness was imparted as compared with a control in which diethyl sebacate was not added.

[6] = Sensory evaluation of fizziness enhancement in carbonated grapefruit flavored Chu-Hi; format: in vivo; conditions: for Fizziness enhancement evaluation result: carbonated Chu-Hi, average score of seven panelists, 1 to 5
[7] = carbonated beer-flavored beverage
[8] = carbonated grapefruit flavored Chu-Hi

T1 sequence (O75762 whole entry): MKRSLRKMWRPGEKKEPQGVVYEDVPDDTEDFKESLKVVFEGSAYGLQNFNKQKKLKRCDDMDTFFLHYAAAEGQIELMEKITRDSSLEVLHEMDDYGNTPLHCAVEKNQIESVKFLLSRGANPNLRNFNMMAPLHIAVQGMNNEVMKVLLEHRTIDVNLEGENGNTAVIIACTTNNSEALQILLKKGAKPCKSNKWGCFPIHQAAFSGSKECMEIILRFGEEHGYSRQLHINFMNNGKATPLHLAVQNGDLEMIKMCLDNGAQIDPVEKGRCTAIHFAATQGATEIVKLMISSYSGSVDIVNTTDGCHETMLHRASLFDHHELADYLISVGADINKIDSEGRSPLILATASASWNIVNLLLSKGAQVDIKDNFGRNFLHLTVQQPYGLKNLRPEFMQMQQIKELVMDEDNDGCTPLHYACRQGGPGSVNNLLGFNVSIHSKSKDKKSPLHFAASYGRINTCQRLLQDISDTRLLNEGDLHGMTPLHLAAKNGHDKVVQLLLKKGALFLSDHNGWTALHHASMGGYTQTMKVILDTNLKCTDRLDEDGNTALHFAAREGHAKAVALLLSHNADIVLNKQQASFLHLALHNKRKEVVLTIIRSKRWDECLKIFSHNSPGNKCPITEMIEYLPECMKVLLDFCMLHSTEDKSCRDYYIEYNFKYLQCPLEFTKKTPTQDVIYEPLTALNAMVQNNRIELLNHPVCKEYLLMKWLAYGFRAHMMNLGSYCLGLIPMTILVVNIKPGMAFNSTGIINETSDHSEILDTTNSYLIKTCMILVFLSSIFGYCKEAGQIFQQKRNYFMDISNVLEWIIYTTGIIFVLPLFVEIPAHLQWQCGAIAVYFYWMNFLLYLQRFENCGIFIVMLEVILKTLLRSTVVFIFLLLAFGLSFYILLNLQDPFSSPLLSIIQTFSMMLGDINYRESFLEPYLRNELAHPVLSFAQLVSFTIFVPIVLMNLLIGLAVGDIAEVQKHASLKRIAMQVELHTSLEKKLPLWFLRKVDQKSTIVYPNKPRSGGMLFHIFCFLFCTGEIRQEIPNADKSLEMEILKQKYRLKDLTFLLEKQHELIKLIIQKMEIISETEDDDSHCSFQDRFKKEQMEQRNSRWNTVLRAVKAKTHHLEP

SMILES: CCOC(=O)CCCCCCCCC(=O)OCC [Diethyl sebacate, diethyl sebacate]
- TRPA1 activity (human TRPA1): high TRPA1 activity; also recorded: respond
- amelioration of mouthfeel (in words) [1]: effect of ameliorating the mouthfeel was also confirmed
- Carbonation sensation imparting evaluation result ([1]; 0.1 ppm, 1 (almost no fizziness) to 5 (extremely imparted)): 1.1 points
- Carbonation sensation imparting evaluation result ([1]; 0.3 ppm, 1 to 5): 1.3 points
- Carbonation sensation imparting evaluation result ([1]; 1 ppm, 1 to 5): 1.9 points
- Carbonation sensation imparting evaluation result ([1]; 5 ppm, 1 to 5): 2.7 points
- Carbonation sensation imparting evaluation result ([1]; 10 ppm, 1 to 5): 2.9 points
- Carbonation sensation imparting evaluation result ([1]; 20 ppm, 1 to 5): 1.7 points
- Carbonation sensation imparting evaluation result ([1]; 50 ppm, 1 to 5): 1.7 points
- Carbonation sensation imparting evaluation result ([1]; 100 ppm, 1 to 5): 1.1 points
- fizziness imparting (in words) ([1]; contains no carbon dioxide): fizziness can be imparted to a black tea beverage with fruit juice
- Fizziness enhancement evaluation result ([2]; 0.1 ppm): 1.1 points
- Fizziness enhancement evaluation result ([2]; 0.3 ppm): 1.6 points
- Fizziness enhancement evaluation result ([2]; 1 ppm): 2.7 points
- Fizziness enhancement evaluation result ([2]; 5 ppm): 2.9 points
- Fizziness enhancement evaluation result ([2]; 10 ppm): 2.7 points
- Fizziness enhancement evaluation result ([2]; 20 ppm): 2.7 points
- Fizziness enhancement evaluation result ([2]; 50 ppm): 1.9 points
- Fizziness enhancement evaluation result ([2]; 100 ppm): 1.1 points
- amelioration of mouthfeel (in words) [2, 7]: effect of ameliorating the mouthfeel was also confirmed
- fizziness enhancement (in words) [2, 7]: fizziness of the carbonated beer-flavored beverage can be enhanced
- amelioration of mouthfeel (in words) [3]: effect of ameliorating the mouthfeel was also confirmed
- fizziness imparting (in words) [3]: fizziness can be imparted to the cider-flavored frozen dessert
- Carbonation sensation imparting evaluation result ([3]; 0.1 ppm): 1.4 points
- Carbonation sensation imparting evaluation result ([3]; 0.3 ppm): 1.9 points
- Carbonation sensation imparting evaluation result ([3]; 1 ppm): 2.1 points
- Carbonation sensation imparting evaluation result ([3]; 5 ppm): 3.6 points
- Carbonation sensation imparting evaluation result ([3]; 10 ppm): 4.5 points
- Carbonation sensation imparting evaluation result ([3]; 20 ppm): 3.6 points
- Carbonation sensation imparting evaluation result ([3]; 50 ppm): 2.7 points
- Carbonation sensation imparting evaluation result ([3]; 100 ppm): 1.4 points
- amelioration of mouthfeel (in words) [4]: effect of ameliorating the mouthfeel was also confirmed
- fizziness enhancement (in words) [4]: fizziness of the cider-flavored carbonated beverage can be enhanced
- Fizziness enhancement evaluation result ([4]; 0.1 ppm): 1.3 points
- Fizziness enhancement evaluation result ([4]; 0.3 ppm): 1.9 points
- Fizziness enhancement evaluation result ([4]; 1 ppm): 3.7 points
- Fizziness enhancement evaluation result ([4]; 5 ppm): 3.9 points
- Fizziness enhancement evaluation result ([4]; 10 ppm): 3.7 points
- Fizziness enhancement evaluation result ([4]; 20 ppm): 3.6 points
- Fizziness enhancement evaluation result ([4]; 50 ppm): 3.3 points
- Fizziness enhancement evaluation result ([4]; 100 ppm): 1.1 points
- Carbonation sensation imparting evaluation result ([5]; 0.1 ppm): 1.8 points
- Carbonation sensation imparting evaluation result ([5]; 1 ppm): 2.2 points
- Carbonation sensation imparting evaluation result ([5]; 5 ppm): 2.8 points
- Carbonation sensation imparting evaluation result ([5]; 10 ppm): 3.4 points
- Carbonation sensation imparting evaluation result ([5]; 50 ppm): 4.0 points
- Carbonation sensation imparting evaluation result ([5]; 100 ppm): 3.8 points
- Carbonation sensation imparting evaluation result ([5]; 500 ppm): 3.0 points
- amelioration of mouthfeel (in words) ([5]; mouthwash): effect of ameliorating the mouthfeel was also confirmed
- fizziness imparting (in words) ([5]; mouthwash): fizziness can be imparted to the mouthwash
- Fizziness enhancement evaluation result ([6]; 0.1 ppm): 1.1 points
- Fizziness enhancement evaluation result ([6]; 0.3 ppm): 1.7 points
- Fizziness enhancement evaluation result ([6]; 1 ppm): 4.0 points
- Fizziness enhancement evaluation result ([6]; 5 ppm): 4.0 points
- Fizziness enhancement evaluation result ([6]; 10 ppm): 3.9 points
- Fizziness enhancement evaluation result ([6]; 20 ppm): 3.4 points
- Fizziness enhancement evaluation result ([6]; 50 ppm): 2.6 points
- Fizziness enhancement evaluation result ([6]; 100 ppm): 1.3 points
- amelioration of mouthfeel (in words) [6, 8]: effect of ameliorating the mouthfeel was also confirmed
- fizziness enhancement (in words) [6, 8]: fizziness of the carbonated grapefruit flavored Chu-Hi can be enhanced
